Molecular target: T1, ΔF508-CFTR stably expressed in NIH3T3 cells (Homo sapiens, UniProt P13569, DEL508-508)
T1 construct: expressed in transfected cells
Assay: Membrane potential optical (FRET/VIPR) assay for ΔF508-CFTR potentiation
Format: cell-based
Details: NIH3T3, read-out: % Efficacy (relative modulating efficacy in comparison with genistein), normalized to peak genistein response
Source text: Membrane potential optical methods for assaying ΔF508-CFTR potentiation properties of compounds.
These voltage sensitive assays are based on the change in fluorescence resonant energy transfer (FRET) between the membrane-soluble, voltage-sensitive dye, DiSBAC2(3), and a fluorescent phospholipid, CC2-DMPE, which is attached to the outer leaflet of the plasma membrane and acts as a FRET donor. Changes in membrane potential (Vm) cause the negatively charged DiSBAC2(3) to redistribute across the plasma membrane and the amount of energy transfer from CC2-DMPE changes accordingly. The changes in fluorescence emission were monitored using VIPR™ II, which is an integrated liquid handler and fluorescent detector designed to conduct cell-based screens in 96- or 384-well microtiter plates.
To identify potentiators of ΔF508-CFTR, a double-addition HTS assay format was developed (FIG. 1A). During the first addition, a Cl^−-free medium with or without test compound was added to each well. After 22 sec, a second addition of Cl^−-free medium containing 2-10 μM forskolin was added to activate ΔF508-CFTR. The extracellular Cl^− concentration following both additions was 28 mM, which promoted Cl^− efflux in response to ΔF508-CFTR activation and the resulting membrane depolarization was optically monitored using the FRET-based voltage-sensor dyes. The double-addition format has several advantages. First, it enables separation of compounds that act independently of forskolin-activated ΔF508-CFTR. Second, it allows compounds that act from the cytoplasmic surface of the channel to cross the plasma membrane and take effect. Lastly, fluorescent changes that arise from test compound addition alone can be identified.
High-throughput assay format for identifying potentiators of ΔF508-CFTR stably expressed in NIH3T3 cells.
FIG. 1A: Double-addition assay format in which Cl^−-free medium was added with or without the test compound prior to forskolin addition. The cells were incubated at 27° C. for 16-24 hr prior to use.
• Bath Solution #1: (in mM)NaCl 160, KCl 4.5, CaCl2 2, MgCl2 1, HEPES 10, pH 7.4 with NaOH. • Chloride-free bath solution: Chloride salts in Bath Solution #1 are substituted with gluconate salts. • CC2-DMPE: Prepared as a 10 mM stock solution in DMSO and stored at −20° C. • DiSBAC2(3): Prepared as a 10 mM stock in DMSO and stored at −20° C.
NIH3T3 mouse fibroblasts stably expressing ΔF508-CFTR are used for optical measurements of membrane potential. The cells are maintained at 37° C. in 5% CO2 and 90% humidity in Dulbecco's modified Eagle's medium supplemented with 2 mM glutamine, 10% fetal bovine serum, 1×NEAA, β-ME, 1×pen/strep, and 25 mM HEPES in 175 cm^2 culture flasks. For all optical assays, the cells were seeded at 30,000/well in 384-well matrigel-coated plates and cultured for 2 hrs at 37° C. before culturing at 27° C. for 24 hrs.

T1 sequence (P13569 with tags, fused parts or gaps DEL508-508): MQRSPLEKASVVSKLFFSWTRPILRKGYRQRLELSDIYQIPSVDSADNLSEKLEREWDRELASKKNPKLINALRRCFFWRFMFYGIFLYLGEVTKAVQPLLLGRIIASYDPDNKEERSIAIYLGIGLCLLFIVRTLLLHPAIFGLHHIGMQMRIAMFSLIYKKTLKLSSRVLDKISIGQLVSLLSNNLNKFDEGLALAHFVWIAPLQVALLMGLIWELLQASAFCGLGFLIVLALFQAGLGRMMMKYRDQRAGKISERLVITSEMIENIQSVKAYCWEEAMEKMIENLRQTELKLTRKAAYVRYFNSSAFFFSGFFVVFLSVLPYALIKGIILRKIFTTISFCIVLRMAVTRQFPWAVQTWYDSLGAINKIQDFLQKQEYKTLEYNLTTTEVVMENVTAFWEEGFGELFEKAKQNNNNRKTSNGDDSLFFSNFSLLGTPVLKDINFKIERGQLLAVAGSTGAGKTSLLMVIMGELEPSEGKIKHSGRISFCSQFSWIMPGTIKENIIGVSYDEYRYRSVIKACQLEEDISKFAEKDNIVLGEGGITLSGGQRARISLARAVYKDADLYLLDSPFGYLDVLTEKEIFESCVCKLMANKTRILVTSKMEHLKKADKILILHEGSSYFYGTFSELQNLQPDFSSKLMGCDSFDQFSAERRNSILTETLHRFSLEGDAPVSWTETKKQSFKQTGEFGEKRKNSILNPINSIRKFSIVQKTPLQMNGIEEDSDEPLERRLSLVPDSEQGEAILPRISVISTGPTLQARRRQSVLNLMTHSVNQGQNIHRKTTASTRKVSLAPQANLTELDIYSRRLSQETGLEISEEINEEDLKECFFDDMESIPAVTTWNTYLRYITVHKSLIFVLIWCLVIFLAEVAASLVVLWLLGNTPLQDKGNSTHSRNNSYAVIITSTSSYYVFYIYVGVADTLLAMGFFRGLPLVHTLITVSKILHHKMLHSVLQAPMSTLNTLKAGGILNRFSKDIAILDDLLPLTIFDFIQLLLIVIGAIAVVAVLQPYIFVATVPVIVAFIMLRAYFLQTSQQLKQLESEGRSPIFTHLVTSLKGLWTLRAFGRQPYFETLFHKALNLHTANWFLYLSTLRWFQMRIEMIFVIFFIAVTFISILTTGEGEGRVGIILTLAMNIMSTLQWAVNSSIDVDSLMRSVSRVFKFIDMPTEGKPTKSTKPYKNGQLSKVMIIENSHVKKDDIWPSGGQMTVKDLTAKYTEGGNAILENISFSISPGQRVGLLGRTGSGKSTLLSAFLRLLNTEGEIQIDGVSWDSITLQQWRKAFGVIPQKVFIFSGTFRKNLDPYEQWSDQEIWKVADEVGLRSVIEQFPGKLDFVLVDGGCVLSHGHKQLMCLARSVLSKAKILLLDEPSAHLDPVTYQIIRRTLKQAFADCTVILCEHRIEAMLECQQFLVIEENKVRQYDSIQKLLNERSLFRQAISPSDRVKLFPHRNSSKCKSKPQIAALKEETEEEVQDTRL

Row | Structure (SMILES) | Emax
1 | Cc1ccc(O)c(-c2cc(-c3ccc(F)cc3)[nH]n2)c1 [IA-104] | 35 to 75%
2 | O=[N+]([O-])c1ccccc1-c1cc(-c2cc(F)ccc2O)[nH]n1 [IA-20] | > 75%
3 | Cc1ccc(O)c(-c2cc(-c3ccc(F)c(F)c3)n[nH]2)c1 [IA-44] | 35 to 75%
4 | Cc1ccc(-c2cc(-c3cccc(F)c3)[nH]n2)c(O)c1 [IA-106] | 35 to 75%
5 | Oc1ccccc1-c1cc(-c2c(F)cccc2F)n[nH]1 [IA-78] | 35 to 75%
6 | Cc1ccc(O)c(-c2cc(-c3nc(C)c(-c4ccc5c(c4)OCC5)s3)n[nH]2)c1 [IA-95] | 35 to 75%
7 | CCOc1ccccc1-c1cc(-c2cc(C)ccc2O)[nH]n1 [IA-80] | 35 to 75%
8 | COc1ccc(-c2cc(-c3cc(C)ccc3O)n[nH]2)cc1 [IA-22] | 35 to 75%
9 | Cc1ccc(O)c(-c2cc(-c3ccccc3-c3ccncc3)n[nH]2)c1 [IA-29] | 35 to 75%
10 | COc1ccc(O)c(-c2cc(-c3ccccc3C)[nH]n2)c1 [IA-62] | 35 to 75%
11 | Fc1ccccc1-c1cc(-c2cccc(Cl)c2)[nH]n1 [I-9] | 35 to 75%
12 | Oc1ccc(-c2nnn[nH]2)cc1-c1cc(-c2ccccc2)n[nH]1 [IA-54] | 35 to 75%
13 | Cc1cc(O)c(-c2cc(-c3ccccc3)n[nH]2)cc1C [IA-36] | 35 to 75%
14 | CCCc1ccc(O)c(-c2cc(-c3ccccc3)[nH]n2)c1 [IA-14] | > 75%
15 | Cc1ccc(O)c(-c2cc(-c3cccc(C(F)(F)F)c3C)n[nH]2)c1 [IA-74] | 35 to 75%
16 | Cc1ccc(O)c(-c2cc(-c3ccccc3SC(F)F)n[nH]2)c1 [IA-79] | < 35%
17 | COc1ccc(-c2cc(-c3ccccc3O)n[nH]2)cc1 [IA-11] | 35 to 75%
18 | Cc1ccc(O)c(-c2cc(C3CCCCC3)n[nH]2)c1 [IA-71] | 35 to 75%
19 | Cc1cc(C)c(-c2cc(-c3cc(C)ccc3O)[nH]n2)c(C)c1 [IA-85] | 35 to 75%
20 | O=[N+]([O-])c1ccccc1-c1cc(-c2ccccc2O)n[nH]1 [IA-97] | 35 to 75%
21 | Cc1cc(-c2cc(-c3cc(F)ccc3O)n[nH]2)c(C(F)(F)F)o1 [IA-92] | 35 to 75%

Row | Structure (SMILES) | Emax
22 | Oc1ccc(F)cc1-c1cc(-c2ccccc2)n[nH]1 [IA-21] | 35 to 75%
23 | Cc1ccc(O)c(-c2cc(-c3ccncc3)n[nH]2)c1 [IA-93] | 35 to 75%
24 | Cc1ccc(O)c(-c2cc(-c3c(F)ccc(C)c3F)n[nH]2)c1 [IA-56] | 35 to 75%
25 | Cc1ccc(O)c(-c2cc(-c3cc(C(F)(F)F)nn3-c3ccc([N+](=O)[O-])cc3)n[nH]2)c1 [IA-65] | 35 to 75%
26 | Fc1ccccc1-c1cc(-c2ccccc2Cl)[nH]n1 [I-7] | 35 to 75%
27 | Cc1ccc(O)c(-c2cc(-c3cc(C)on3)n[nH]2)c1 [IA-107] | 35 to 75%
28 | COc1cccc(-c2n[nH]c(-c3ccccc3O)c2OC)c1 [IA-38] | 35 to 75%
29 | c1ccc(-c2cc(-c3cccc4c3OCO4)[nH]n2)cc1 [I-15] | 35 to 75%
30 | COc1ccc(O)c(-c2cc(-c3cccnc3Oc3ccccc3)[nH]n2)c1 [IA-77] | 35 to 75%
31 | Cc1ccc(O)c(-c2cc(-c3cccc(C)c3C)n[nH]2)c1 [IA-53] | 35 to 75%
32 | COc1ccc(O)c(-c2cc(-c3ccccc3C(F)(F)F)n[nH]2)c1 [IA-16] | 35 to 75%
33 | Cc1ccc(O)c(-c2cc(-c3c(Cl)cccc3Cl)n[nH]2)c1 [IA-105] | 35 to 75%
34 | Oc1ccccc1-c1cc(-c2ccc(C(F)(F)F)cc2F)n[nH]1 [IA-98] | 35 to 75%
35 | Cc1ccc(O)c(-c2cc(-c3ccc([N+](=O)[O-])cc3)n[nH]2)c1 [IA-102] | 35 to 75%
36 | Cc1ccc(O)c(-c2cc(-c3cc(Cl)ccc3C(F)(F)F)n[nH]2)c1 [IA-89] | 35 to 75%
37 | Cc1ccc(O)c(-c2cc(-c3ccccc3OC(F)(F)F)n[nH]2)c1 [IA-45] | > 75%
38 | Cc1ccc(-c2cc(-c3ccccc3Cl)[nH]n2)c(O)c1 [IA-58] | 35 to 75%
39 | Cc1ccc(O)c(-c2cc(-c3ccc(Br)cc3)[nH]n2)c1 [IA-35] | > 75%
40 | Cc1ccc(O)c(-c2cc(-c3ccc4c(c3)OCO4)n[nH]2)c1 [IA-25] | 35 to 75%
41 | Cc1ccc(O)c(-c2cc(-c3ccccc3C(F)(F)F)n[nH]2)c1 [IA-41] | 35 to 75%
42 | Cc1ccc(O)c(-c2cc(-c3ccc(C(F)(F)F)c(C)c3)n[nH]2)c1 [IA-17] | 35 to 75%

Row | Structure (SMILES) | Emax
43 | Oc1ccccc1-c1cc(-c2cccc(F)c2)[nH]n1 [IA-81] | 35 to 75%
44 | CC(C)c1ccc(O)c(-c2cc(-c3ccccc3)[nH]n2)c1 [IA-26] | > 75%
45 | O=[N+]([O-])c1ccc(-c2cc(-c3cc(C(F)(F)F)ccc3O)[nH]n2)cc1 [IA-114] | 35 to 75%
46 | Cc1ccc(-c2cc(-c3ccc(C)cc3O)n[nH]2)cc1 [IA-82] | 35 to 75%
47 | Cc1ccc(O)c(-c2cc(-c3cccnc3)n[nH]2)c1 [IA-27, 4-Methyl-2-(5-pyridin-3-yl-1H-pyrazol-3-yl)phenol] | 35 to 75%
48 | CCSc1ncccc1-c1cc(-c2ccccc2)n[nH]1 [I-3] | 35 to 75%
49 | Cc1ccc(O)c(-c2cc(-c3cc(C(C)(C)C)oc3C)n[nH]2)c1 [IA-50] | 35 to 75%
50 | Cc1ccc(O)c(-c2cc(-c3ccc(C(F)(F)F)cc3)[nH]n2)c1 [IA-103] | < 35%
51 | Cc1ccc(O)c(-c2cc(-c3ccc(OCc4ccccc4)cc3)n[nH]2)c1 [IA-10] | 35 to 75%
52 | Cc1ccc(O)c(-c2cc(-c3ccc(F)c(Cl)c3)n[nH]2)c1 [IA-51] | 35 to 75%
53 | Fc1ccccc1-c1cc(-c2ccccc2)n[nH]1 [I-4] | 35 to 75%
54 | Cc1cccc(-c2cc(-c3ccccc3)n[nH]2)c1 [I-19] | 35 to 75%
55 | Fc1ccccc1-c1cc(-c2ccc(OC(F)(F)F)cc2)[nH]n1 [I-17] | 35 to 75%
56 | Oc1ccc(F)cc1-c1cc(-c2ccccc2C(F)(F)F)[nH]n1 [IA-6] | > 75%
57 | COc1ccccc1-c1cc(-c2cc(C)ccc2O)[nH]n1 [IA-94] | 35 to 75%
58 | COc1ccc(-c2cc(-c3ccc(C)cc3O)n[nH]2)cc1 [IA-100] | 35 to 75%
59 | Cc1ccc(-c2cc(-c3ccc(F)cc3)[nH]n2)c(O)c1 [IA-63] | < 35%
60 | Cc1ccc(O)c(-c2cc(-c3ccccc3Cl)[nH]n2)c1 [IA-48] | < 35%
61 | Oc1ccc(-c2cc(-c3ccccc3O)[nH]n2)cc1 [IA-33] | 35 to 75%
62 | Cc1ccc(O)c(-c2cc(-c3cccs3)n[nH]2)c1 [IA-28] | > 75%
63 | Fc1ccccc1-c1cc(-c2ccc3c(c2)OC(F)(F)O3)[nH]n1 [I-10] | 35 to 75%

Row | Structure (SMILES) | Emax
64 | Oc1cccc(-c2cc(-c3ccccc3O)[nH]n2)c1 [IA-43] | > 75%
65 | COc1ccc(O)c(-c2cc(-c3ccc(F)cc3)[nH]n2)c1 [IA-2] | 35 to 75%
66 | Cc1ccc(O)c(-c2cc(C(Cc3ccccc3)NS(=O)(=O)c3cccc4ccccc34)n[nH]2)c1 (stereo not shown) [IA-91] | 35 to 75%
67 | Cc1ccc(-c2cc(-c3cc(C)ccc3O)n[nH]2)cc1 [IA-59] | 35 to 75%
68 | Cc1ccc(O)c(-c2cc(-c3ccc(-c4ccc(S(C)(=O)=O)cc4)o3)n[nH]2)c1 [IA-76] | 35 to 75%
69 | COc1cccc(-c2cc(-c3cc(C)ccc3O)[nH]n2)c1 [IA-66] | 35 to 75%
70 | COc1ccc(-c2cc(-c3cc(C)ccc3O)[nH]n2)cc1C(F)(F)F [IA-72] | 35 to 75%
71 | Cc1ccc(O)c(-c2cc(-c3cc(Cl)ccc3F)n[nH]2)c1 [IA-115] | < 35%
72 | Cc1ccc(O)c(-c2cc(-c3ccccc3C#N)n[nH]2)c1 [IA-30] | 35 to 75%
73 | Cc1ccc(O)c(-c2cc(-c3cc(C(F)(F)F)oc3C)n[nH]2)c1 [IA-42] | > 75%
74 | Oc1ccc(Cl)cc1-c1cc(-c2ccc(F)cc2)[nH]n1 [IA-88] | 35 to 75%
75 | Cc1ccc(O)c(-c2cc(-c3ccccc3O)n[nH]2)c1 [IA-34] | < 35%
76 | Oc1ccc(Cl)cc1-c1cc(-c2ccccc2)[nH]n1 [IA-19] | 35 to 75%
77 | Cc1ccc(O)c(-c2cc(-c3cccnc3Sc3ccc(Cl)cc3)n[nH]2)c1 [IA-86] | 35 to 75%
78 | CSc1ncccc1-c1cc(-c2ccccc2O)n[nH]1 [IA-37] | 35 to 75%
79 | Oc1ccccc1-c1cc(-c2ccccc2Cl)[nH]n1 [IA-68] | 35 to 75%
80 | Cc1ccc(O)c(-c2cc(-c3ccccc3Oc3ccccc3)n[nH]2)c1 [IA-84] | 35 to 75%
81 | CCCSc1ncccc1-c1cc(-c2ccccc2)n[nH]1 [I-5] | 35 to 75%

Same assay, conditions: normalized to peak genistein response

Row | Structure (SMILES) | % Efficacy (relative modulating efficacy in comparison with genistein)
82 | Oc1ccccc1-c1cc(-c2ccccc2Cl)[nH]n1 [IA-113] | + (an efficacy range of <35% when compared to genistein)
